Laboratory results taken from PMC9721424, “Novel N-methylsulfonyl-indole derivatives: biological activity and COX-2/5-LOX inhibitory effect with improved gastro protective profile and reduced cardio vascular risks” (Journal of Enzyme Inhibition and Medicinal Chemistry, 2022).
Marks after values point to notes of the source that are not given here.

Tests used:
[1] = tested on: stomach mucosa; assay: Ulcerogenic liability (ulcer index); format: in vivo; conditions: rats, 50 mg/kg dosage for three consecutive days, mean of 6 rats
Protocol: In this study, adult male Wister albino rats weighing 160–180 g were used. Before any experimental procedure, rats were given 14 days to acclimate. These rats were maintained in a controlled setting with food and water available. All experiments were conducted in accordance with laboratory animal care guidelines. All experimental procedures were carried out in accordance with the regulations of the Committee of Ethics for Scientific Research on Living Organisms, Faculty of Pharmacy, Nahda University, Beni-Suef (NUB). The approval number was (NUB-019–025). […] Before drug administration, rats were fasted for 18 h and then separated into four groups. The control group received a suspension of the vehicle (10% DMSO in saline was given P.O (100 mg/kg) once daily). […] Rats were given the required dose for three consecutive days. Following the last dose, the stomachs of each rat were dissected and opened via the greater curvature and rinsed with saline. For investigation, the dissected stomach was stretched with pins on a cork board. Through illuminated magnifying lenses, the stomach mucosa was examined for the existence of ulcers. Cho and Ogle’s method[45]^,[46] was used to calculate the ulcer index.

[2] = tested on: stomach; assay: Histopathological examination of stomach; format: in vivo, rats; conditions: rat, in vivo
Protocol: In brief, the stomachs of each animal group’s rat were fixed in 10% neutral buffered formalin for 48 h. The sections were then dehydrated, cleared, fixed in paraffin, sectioned ([…]), and stained with H&E stain.

[3] = tested on: heart function biomarkers (LDH, CK-MB, and troponin); assay: Cardiac function biomarkers in rat serum; format: in vivo, rats; conditions: 50 mg/kg/day p.o. for 2 weeks, mean ± SEM
Protocol: (§1) Eighteen rats were divided into three groups at random (6 animals in each group). The first group was given a vehicle and served as normal control. […] Ketamine (100 mg/kg) was used to anaesthetise the animals on the 15th day. Blood samples were obtained from the retro orbital, allowed to clot, centrifuged at 1000 g for 15 min, and utilised to examine heart function biomarkers (LDH, CK-MB, and troponin). The abdomen of each rat was opened, and the heart was extracted and washed in ice-cold physiological saline before being harnessed for histological investigation.

[4] = tested on: heart; assay: Histopathological examination of the heart; format: in vivo; conditions: rats, two weeks administration, H&E stain
Protocol: as §1

[5] = tested on: Gram-positive bacteria, Gram-negative bacteria, and yeast fungus; assay: Disc diffusion antimicrobial screening, whole panel; format: cell-based; conditions: all tested Gram-positive and Gram-negative bacteria, read-out: diameters of inhibition zones
Protocol: All compounds were screened for their antimicrobial activity at the Microbiology and Immunology Department, Faculty of Pharmacy, Beni-Suef University. The antimicrobial activity screening was carried out using the disc diffusion method, as described earlier, with some adjustments.
For each indicator microbe, a solution of half McFarland turbidity was prepared in sterile saline, followed by surface streaking of the strains on Mueller-Hinton agar with a sterile cotton swab. Then, sterile filter paper discs (5 mm diameter) preloaded with 100 µg of each compound were applied to the surface of the pre-inoculated plates. Then, the plates were chilled at 4 °C for 100 min before being incubated overnight at the proper temperature for microbial growth. Finally, the diameter of the inhibition zones around each disc was measured to evaluate the antimicrobial activity of the compounds. Ciprofloxacin was used as a standard antibacterial agent at a concentration of 20 µg/disc. Furthermore, DMSO-loaded discs were used as a negative control.

[6] = antimicrobial and antifungal activity; cited from earlier work

## Cc1ccc(-c2cc(C(F)(F)F)nn2-c2ccc(S(N)(=O)=O)cc2)cc1 [Celecoxib, reference compound]
[1]
  Ulcer index: 3.79^b
[1]; listed as celecoxib
  Ulcer index: 3.79
[2]
  stomach histopathology finding: multiple complete ulcers and superficial mucosal erosions with disrupted mucous layer
[3]
  CK-MB: 0.635 ± 0.065^a ng/ml
  LDH: 690 ± 08^a U/L
  Troponin I: 0.1500 ± 0.0420^a ng/ml
[4]
  heart histopathology finding: scattered inflamed cardiac muscle fibres with vacuolar degenerated myocytes

## O=C(O)c1cn(C2CC2)c2cc(N3CCNCC3)c(F)cc2c1=O [ciprofloxacin]
[5]
  zone of inhibition at 20 µg/disc: 34 to 48 mm
[6]
  MIC: < 3.90 µg/mL
